Test results taken from patent publication US10954246B2, “Compound of EOC315 Mod.I crystal form and preparation method thereof” (Taizhou EOC Pharma Co., Ltd., priority 2017, dated 2021).
Structures can show the parent of a compound that is named as a salt.

Columns and labels:
[1] = Stability evaluation under accelerated condition (40° C., RH 75%); assay type: physicochemical
Description: Long-term stability over twelve months was evaluated at 25° C. and a relative humidity of 60%; or accelerated stability over six months was evaluated at 40° C. and a relative humidity of 75%.

[2] = tested on: Colo-205 human CRC xenograft; test: Colo-205 human CRC xenograft model, tumor microvessel histomorphometry (CD31); assay type: in vivo; conditions: for decrease of MVA: 3 days after the administration
Description: The EOC315 crystalline form Mod. […] Therefore, a study was conducted in a Colo-205 human CRC xenograft model to evaluate whether the anti-tumor activity observed in vivo is consistent with the hypothesis. The microvessel density of a tumor was determined by the quantitative histomorphometry after the endothelial cell marker CD31 was stained. Four hours after the first drug delivery, the declining level of the tumor MVA was further increased compared with each solvent control group (32%; P<0.05). Twenty-four hours after the administration, the declining level of the tumor MVA was further increased (53%; P<0.01).

[3] = Thermogravimetric analysis (TGA); assay type: physicochemical
Description: The DTA curve of a test sample has an endothermic peak at 198.1° C., which is consistent with the DSC result.

[4] = Month 0, limit 0.10%, listed as 151211
[5] = Month 0, limit 0.10%, listed as 151212
[6] = Month 0, limit 0.10%, listed as 151213
[7] = Month 1, limit 0.10%, listed as 151211
[8] = Month 1, limit 0.10%, listed as 151212
[9] = Month 1, limit 0.10%, listed as 151213
[10] = Month 1, limit 0.17%, listed as 151211
[11] = Month 1, limit 0.17%, listed as 151212
[12] = Month 1, limit 0.17%, listed as 151213
[13] = Month 2, limit 0.10%, listed as 151211
[14] = Month 2, limit 0.10%, listed as 151212
[15] = Month 2, limit 0.10%, listed as 151213
[16] = Month 2, limit 0.17%, listed as 151211
[17] = Month 2, limit 0.17%, listed as 151212
[18] = Month 2, limit 0.17%, listed as 151213
[19] = Month 3, limit 0.10%, listed as 151211
[20] = Month 3, limit 0.10%, listed as 151212
[21] = Month 3, limit 0.10%, listed as 151213
[22] = Month 6, limit 0.10%, listed as 151211
[23] = Month 6, limit 0.10%, listed as 151212
[24] = Month 6, limit 0.10%, listed as 151213
[25] = Month 6, limit 0.17%, listed as 151211
[26] = Month 6, limit 0.17%, listed as 151212
[27] = Month 6, limit 0.17%, listed as 151213

Structure (SMILES): CNC(=O)c1cc(OCc2nnc(Nc3ccc(Cl)cc3)c3ccoc23)ccn1 [EOC315 crystalline form Mod. I, 4-(4-chloroanilino)-7-(2-methylaminocarbonyl-4-oxymethyl)pyridylfuro[2,3-d]pyridazine mesylate]
- Related substance Impurity 5 [1, 4]: 0.02%
- Related substance Impurity 6 [1, 4]: 0.01%
- Related substance Impurity 5 [1, 5]: 0.01%
- Related substance Impurity 6 [1, 5]: Undetected
- Related substance Impurity 5 [1, 6]: Undetected
- Related substance Impurity 6 [1, 6]: Undetected
- Related substance Maximum single impurity ([1]; Month 0, limit 0.15%, listed as 151211): 0.0079%
- Related substance Maximum single impurity ([1]; Month 0, limit 0.15%, listed as 151212): 0.012%
- Related substance Maximum single impurity ([1]; Month 0, limit 0.15%, listed as 151213): 0.0085%
- Related substance Impurity 1 ([1]; Month 0, limit 0.17%): Undetected
- Related substance Impurity 2 ([1]; Month 0, limit 0.17%): Undetected
- Related substance Impurity 3 ([1]; Month 0, limit 0.17%, listed as 151211): 0.016%
- Related substance Impurity 3 ([1]; Month 0, limit 0.17%, listed as 151212): 0.011%
- Related substance Impurity 3 ([1]; Month 0, limit 0.17%, listed as 151213): 0.011%
- Related substance Total impurity ([1]; Month 0, limit 1.0%, listed as 151211): 0.53%
- Related substance Total impurity ([1]; Month 0, limit 1.0%, listed as 151212): 0.66%
- Related substance Total impurity ([1]; Month 0, limit 1.0%, listed as 151213): 0.52%
- Related substance Impurity 4 ([1]; Month 0, limit 3.0%, listed as 151211): 0.36%
- Related substance Impurity 4 ([1]; Month 0, limit 3.0%, listed as 151212): 0.46%
- Related substance Impurity 4 ([1]; Month 0, limit 3.0%, listed as 151213): 0.35%
- Crystalline form ([1]; Month 0, limit ModI): ModI
- Related substance Impurity 5 [1, 7]: Undetected
- Related substance Impurity 6 [1, 7]: 0.01%
- Related substance Impurity 5 [1, 8]: 0.01%
- Related substance Impurity 6 [1, 8]: Undetected
- Related substance Impurity 5 [1, 9]: 0.01%
- Related substance Impurity 6 [1, 9]: Undetected
- Related substance Maximum single impurity ([1]; Month 1, limit 0.15%, listed as 151211): 0.011%
- Related substance Maximum single impurity ([1]; Month 1, limit 0.15%, listed as 151212): Undetected
- Related substance Maximum single impurity ([1]; Month 1, limit 0.15%, listed as 151213): 0.0077%
- Related substance Impurity 1 ([1]; Month 1, limit 0.17%): Undetected
- Related substance Impurity 2 [1, 10]: 0.0031%
- Related substance Impurity 3 [1, 10]: 0.0040%
- Related substance Impurity 2 [1, 11]: 0.0026%
- Related substance Impurity 3 [1, 11]: 0.0037%
- Related substance Impurity 2 [1, 12]: Undetected
- Related substance Impurity 3 [1, 12]: 0.0035%
- Related substance Total impurity ([1]; Month 1, limit 1.0%, listed as 151211): 0.5%
- Related substance Total impurity ([1]; Month 1, limit 1.0%, listed as 151212): 0.6%
- Related substance Total impurity ([1]; Month 1, limit 1.0%, listed as 151213): 0.5%
- Related substance Impurity 4 ([1]; Month 1, limit 3.0%, listed as 151211): 0.4%
- Related substance Impurity 4 ([1]; Month 1, limit 3.0%, listed as 151212): 0.5%
- Related substance Impurity 4 ([1]; Month 1, limit 3.0%, listed as 151213): 0.3%
- Related substance Impurity 5 [1, 13]: Undetected
- Related substance Impurity 6 [1, 13]: 0.01%
- Related substance Impurity 5 [1, 14]: 0.02%
- Related substance Impurity 6 [1, 14]: Undetected
- Related substance Impurity 5 [1, 15]: Undetected
- Related substance Impurity 6 [1, 15]: Undetected
- Related substance Maximum single impurity ([1]; Month 2, limit 0.15%, listed as 151211): 0.0045%
- Related substance Maximum single impurity ([1]; Month 2, limit 0.15%, listed as 151212): 0.0062%
- Related substance Maximum single impurity ([1]; Month 2, limit 0.15%, listed as 151213): 0.0067%
- Related substance Impurity 1 ([1]; Month 2, limit 0.17%): Undetected
- Related substance Impurity 2 [1, 16]: Undetected
- Related substance Impurity 3 [1, 16]: 0.0013%
- Related substance Impurity 2 [1, 17]: 0.0036%
- Related substance Impurity 3 [1, 17]: 0.0070%
- Related substance Impurity 2 [1, 18]: 0.0035%
- Related substance Impurity 3 [1, 18]: 0.014%
- Related substance Total impurity ([1]; Month 2, limit 1.0%, listed as 151211): 0.6%
- Related substance Total impurity ([1]; Month 2, limit 1.0%, listed as 151212): 0.7%
- Related substance Total impurity ([1]; Month 2, limit 1.0%, listed as 151213): 0.6%
- Related substance Impurity 4 ([1]; Month 2, limit 3.0%, listed as 151211): 0.4%
- Related substance Impurity 4 ([1]; Month 2, limit 3.0%, listed as 151212): 0.5%
- Related substance Impurity 4 ([1]; Month 2, limit 3.0%, listed as 151213): 0.4%
- Related substance Impurity 5 [1, 19]: 0.01%
- Related substance Impurity 6 [1, 19]: 0.02%
- Related substance Impurity 5 [1, 20]: 0.01%
- Related substance Impurity 6 [1, 20]: Undetected
- Related substance Impurity 5 [1, 21]: Undetected
- Related substance Impurity 6 [1, 21]: 0.01% d
- Related substance Maximum single impurity ([1]; Month 3, limit 0.15%): Undetected
- Related substance Impurity 1 ([1]; Month 3, limit 0.17%): Undetected
- Related substance Impurity 2 ([1]; Month 3, limit 0.17%): Undetected
- Related substance Impurity 3 ([1]; Month 3, limit 0.17%): Undetected
- Related substance Total impurity ([1]; Month 3, limit 1.0%, listed as 151211): 0.5%
- Related substance Total impurity ([1]; Month 3, limit 1.0%, listed as 151212): 0.6%
- Related substance Total impurity ([1]; Month 3, limit 1.0%, listed as 151213): 0.5%
- Related substance Impurity 4 ([1]; Month 3, limit 3.0%, listed as 151211): 0.4%
- Related substance Impurity 4 ([1]; Month 3, limit 3.0%, listed as 151212): 0.5%
- Related substance Impurity 4 ([1]; Month 3, limit 3.0%, listed as 151213): 0.37%
- Related substance Impurity 5 [1, 22]: 0.01%
- Related substance Impurity 6 [1, 22]: 0.01%
- Related substance Impurity 5 [1, 23]: 0.01%
- Related substance Impurity 6 [1, 23]: Undetected
- Related substance Impurity 5 [1, 24]: Undetected
- Related substance Impurity 6 [1, 24]: Undetected
- Related substance Maximum single impurity ([1]; Month 6, limit 0.15%, listed as 151211): 0.030%
- Related substance Maximum single impurity ([1]; Month 6, limit 0.15%, listed as 151212): 0.032%
- Related substance Maximum single impurity ([1]; Month 6, limit 0.15%, listed as 151213): 0.029%
- Related substance Impurity 1 ([1]; Month 6, limit 0.17%): Undetected
- Related substance Impurity 2 [1, 25]: 0.0061%
- Related substance Impurity 3 [1, 25]: 0.045%
- Related substance Impurity 2 [1, 26]: 0.0043%
- Related substance Impurity 3 [1, 26]: 0.044%
- Related substance Impurity 2 [1, 27]: 0.045%
- Related substance Impurity 3 [1, 27]: 0.060%
- Related substance Total impurity ([1]; Month 6, limit 1.0%, listed as 151211): 0.7%
- Related substance Total impurity ([1]; Month 6, limit 1.0%, listed as 151212): 0.8%
- Related substance Total impurity ([1]; Month 6, limit 1.0%, listed as 151213): 0.7%
- Related substance Impurity 4 ([1]; Month 6, limit 3.0%, listed as 151211): 0.4%
- Related substance Impurity 4 ([1]; Month 6, limit 3.0%, listed as 151212): 0.5%
- Related substance Impurity 4 ([1]; Month 6, limit 3.0%, listed as 151213): 0.4%
- Crystalline form ([1]; Month 6, limit ModI): ModI
- decrease of MVA ([2]; at 4 hours): 64%
- decrease of MVA ([2]; at 6 hours): 68%
- growth of tumor cells ([2]; conclusion from the xenograft results): significantly suppressed
- decline of tumor MVA vs solvent control ([2]; four hours after the first drug delivery, P<0.05): 32%
- decline of tumor MVA vs solvent control ([2]; twenty-four hours after the administration, P<0.01): 53%
- degradation temperature [3]: about 241.71 °C
